For 21 compounds, IC50 results are on record in patent US9493461B2, “Tetracyclic heterocycle compounds and methods of use thereof for the treatment of hepatitis C” (priority 2013, dated 2016).

Like-named read-outs stand apart in the source and are kept apart here.

Assay [1] relates to HCV replicon genotype 1a. The experiment in a line: HCV replicon assay, genotype 1a (cell ELISA for replicon-encoded NS3/4A). It is filed as cell-based, hepatitis C virus (HCV). Here is the method: Measurement of inhibition by compounds was performed using the HCV replicon system. Several different replicons encoding different HCV genotypes or mutations were used. In addition, potency measurements were made using different formats of the replicon assay, including different ways of measurements and different plating formats. See Jan M. Vrolijk et al., A replicons-based bioassay for the measurement of interferons in patients with chronic hepatitis C, 110 J. V[…] 201 (2003); Steven S. Carroll et al., Inhibition of Hepatitis C Virus RNA Replication by 2′-Modified Nucleoside Analogs, 278(14) J. BIOLOGICAL CHEMISTRY 11979 (2003). However, the underlying principles are common to all of these determinations, and are outlined below.
(§1) Stable neomycin phosphotransferase encoding replicons-harboring cell lines were used, so all cell lines were maintained under G418 selection prior to the assay. Potency was determined using a cell ELISA assay with an antibody to the replicons encoded NS3/4a protease. See Caterina Trozzi et al., In Vitro Selection and Characterization of Hepatitis C Virus Serine Protease Variants Resistant to an Active-Site Peptide Inhibitor, 77(6) J. Virol. 3669 (2003). To initiate an assay, replicon cells were plated in the presence of a dilution series of test compound in the absence of G418. Typically, the assays were performed in a 96-well plate formate for manual operation, or a 384-well plate format for automated assay. Replicon cells and compound were incubated for 96 hours. At the end of the assay, cells were washed free of media and compound, and the cells were then lysed. RNA was quantified indirectly through detection of replicon-encoded NS3/4A protein levels, through an ELISA-based assay with an antibody specific for NS3/4A. IC50 determinations were calculated as a percentage of a DMSO control by fitting the data to a four-parameter fit function and the data obtained is provided in the table below.
(§2) Data for selected compounds of the present invention was obtained for genotypes 1a and 1b using this method and is provided in the table below: […]
On the technique in general: In antiviral work, replicon cells carry a viral genome segment that copies itself.

The subject of assay [2] is HCV replicon genotype 1b. The experiment in a line: HCV replicon assay, genotype 1b (cell ELISA for replicon-encoded NS3/4A). Format: cell-based, hepatitis C virus (HCV). As to the method: The HCV NS5B inhibitory activity of the present compounds may be tested using assays known in the art. The HCV NS5B polymerase inhibitors described herein have activities in a genotype 1b replicon assay as described in the Examples. The assay is performed by incubating a replicon harboring cell-line in the presence of inhibitor for a set period of time and measuring the effect of the inhibitor on HCV replicon replication either directly by quantifying replicon RNA level, or indirectly by measuring enzymatic activity of a co-encoded reporter enzyme such as luciferase or β-lactamase. By performing a series of such measurements at different inhibitor concentrations, the effective inhibitory concentration of the inhibitor (EC50 or EC90) is determined See Jan M. Vrolijk et al., A replicons-based bioassay for the measurement of interferons in patients with chronic hepatitis C, 110 J. VIROLOGICAL METHODS 201 (2003). Such assays may also be run in an automated format for high through-put screening. See Paul Zuck et al., A cell-based β-lactamase reporter gene assay for the identification of inhibitors of hepatitis C virus replication, 334 ANALYTICAL BIOCHEMISTRY 344 (2004).
Measurement of inhibition by compounds was performed using the HCV replicon system. Several different replicons encoding different HCV genotypes or mutations were used. In addition, potency measurements were made using different formats of the replicon assay, including different ways of measurements and different plating formats. See Jan M. Vrolijk et al., A replicons-based bioassay for the measurement of interferons in patients with chronic hepatitis C, 110 J. VIROLOGICAL METHODS 201 (2003); Steven S. Carroll et al., Inhibition of Hepatitis C Virus RNA Replication by 2′-Modified Nucleoside Analogs, 278(14) J. BIOLOGICAL CHEMISTRY 11979 (2003). However, the underlying principles are common to all of these determinations, and are outlined below.
as §1, §2

Setting [3] is: Hepatitis C virus, 96 h, read-out: 1a IC50 (nM), genotype 1a replicon cells, 96 hours incubation, NS3/4A ELISA readout, % of DMSO control.
The mark [4] stands for this setting: Hepatitis C virus, 96 h, read-out: 1b IC50 (nM), genotype 1b replicon cells, 96 hours incubation, NS3/4A ELISA readout, % of DMSO control.

Regarding `CNC(=O)c1c(-c2ccc(C)nc2)oc2cc(N(C)S(C)(=O)=O)c(-c3cc4c(cn3)ncn3c5cccc(F)c5cc43)cc12` [Example 19], the figures for the IC50 in assay [1] (setting [3]) and in assay [2] (setting [4]) were 2.79 nM and 5.64 nM, respectively.

Take `CNC(=O)c1c(-c2ccc(F)cc2)oc2cc(N(C)S(C)(=O)=O)c(-c3ccc4ncn5c6ccc(F)cc6cc5c4n3)cc12` [Example 20, 2-(4-fluorophenyl)-5-(10-fluoropyrido[3′,2′:4,5]pyrimido[1,6-a]indol-2-yl)-N-methyl-6-(N-methylmethylsulfonamido)benzofuran-3-carboxamide]: the IC50 in assay [1] (setting [3]) was found to be 1.59 nM; in assay [2] (setting [4]), 3.33 nM.

On to `CNC(=O)c1c(-c2ccc(F)cc2)oc2cc(N(C)S(C)(=O)=O)c(-c3ccc4[nH]c(=O)n5c6ccc(F)cc6cc5c4n3)cc12` [Example 21, 5-(10-fluoro-6-oxo-5,6-dihydropyrido[3′,2′:4,5]pyrimido[1,6-a]indol-2-yl)-2-(4-fluorophenyl)-N-methyl-6-(N-methylmethylsulfonamido)benzofuran-3-carboxamide], for which the IC50 in assay [1] (setting [3]) was 7.61 nM; in assay [2] (setting [4]), 8.74 nM.

Turning to `CNC(=O)c1c(-c2ccc(F)cc2)oc2cc(N(C)S(C)(=O)=O)c(-c3ccc4[nH]c(=O)n5c6cccc(F)c6cc5c4n3)cc12` [Example 22], the IC50 in assay [1] (setting [3]) is 4.34 nM; in assay [2] (setting [4]) it was 3.42 nM.

Consider `CNC(=O)c1c(-c2ccc(F)cc2)oc2cc(N(C)S(C)(=O)=O)c(-c3ccc4nc(CS(C)(=O)=O)n5c6cccc(F)c6cc5c4n3)cc12` [Example 23, 5-(11-fluoro-6-((methylsulfonyl)methyl)pyrido[3′,2′:4,5]pyrimido[1,6-a]indol-2-yl)-2-(4-fluorophenyl)-N-methyl-6-(N-methylmethylsulfonamido)benzofuran-3-carboxamide], for which the IC50 in assay [1] (setting [3]) was 1.85 nM; in assay [2] (setting [4]), 2.98 nM.

Regarding `CNC(=O)c1c(-c2ccc(F)cc2)oc2cc(N(C)S(C)(=O)=O)c(-c3cc4c(cn3)nc(CS(C)(=O)=O)n3c5cccc(F)c5cc43)cc12` [Example 24], the IC50 in assay [1] (setting [3]) is 2.73 nM; in assay [2] (setting [4]), 1.9 nM.

In the case of `CNC(=O)c1c(-c2ccc(F)cc2)oc2cc(N(C)S(C)(=O)=O)c(-c3ccc4nc(N)n5c6cccc(F)c6cc5c4n3)cc12` [Example 25, 5-(6-amino-11-fluoropyrido[3′,2′:4,5]pyrimido[1,6-a]indol-2-yl)-2-(4-fluorophenyl)-N-methyl-6-(N-methylmethylsulfonamido)benzofuran-3-carboxamide], the IC50 in assay [1] (setting [3]) is 245 nM; in assay [2] (setting [4]), 145 nM.

On to `CNC(=O)c1c(-c2ccc(C)nc2)oc2cc(N(C)S(C)(=O)=O)c(-c3ccc4nc(CN5CC(F)C5)n5c6cccc(F)c6cc5c4n3)cc12` [Example 28, 5-(11-fluoro-6-((3-fluoroazetidin-1-yl)methyl)pyrido[3′,2′:4,5]pyrimido[1,6-a]indol-2-yl)-N-methyl-6-(N-methylmethylsulfonamido)-2-(6-methylpyridin-3-yl)benzofuran-3-carboxamide], for which the IC50 turned out to be 15.2 nM in assay [1] (setting [3]) and 5.38 nM in assay [2] (setting [4]).

As to `CNC(=O)c1c(-n2ccccc2=O)oc2cc(N(C)S(C)(=O)=O)c(-c3ccc4nc(CN5CC(F)C5)n5c6cccc(F)c6cc5c4n3)cc12` [Example 29], the IC50 in assay [1] (setting [3]) came out at 2.21 nM; in assay [2] (setting [4]), 3.63 nM.

As for `CNC(=O)c1c(-n2ccc(C)cc2=O)oc2cc(N(C)S(C)(=O)=O)c(-c3ccc4nc(CN5CC(F)C5)n5c6cccc(F)c6cc5c4n3)cc12` [Example 30], the IC50 in assay [1] (setting [3]) was 2.41 nM; in assay [2] (setting [4]) it was 2.32 nM.

With `CNC(=O)c1c(-c2ccc(F)nc2)oc2cc(N(C)S(C)(=O)=O)c(-c3ccc4nc(CN5CC(F)C5)n5c6cccc(F)c6cc5c4n3)cc12` [Example 31], the figures for the IC50 in assay [1] (setting [3]) and in assay [2] (setting [4]) were 2.95 nM and 4.69 nM, respectively.

In the case of `CCn1cc(-c2oc3cc(N(C)S(C)(=O)=O)c(-c4ccc5nc(CN6CC(F)C6)n6c7cccc(F)c7cc6c5n4)cc3c2C(=O)NC)cn1` [Example 32], the values for the IC50 in assay [1] (setting [3]) and in assay [2] (setting [4]) were 18.6 nM and 8.23 nM, respectively.

`CNC(=O)c1c(C2CC2)oc2cc(N(C)S(C)(=O)=O)c(-c3ccc4nc(CN5CC(F)C5)n5c6cccc(F)c6cc5c4n3)cc12` [Example 33]: the IC50 turned out to be 2.35 nM in assay [1] (read-out: 1a IC50, genotype 1a replicon cells, 96 hours incubation, NS3/4A ELISA readout, % of DMSO control) and 2.55 nM in assay [2] (read-out: 1b IC50, genotype 1b replicon cells, 96 hours incubation, NS3/4A ELISA readout, % of DMSO control).

`CNC(=O)c1c(-c2ccc(OC)nc2)oc2cc(N(C)S(C)(=O)=O)c(-c3ccc4nc(CN5CC(F)C5)n5c6cccc(F)c6cc5c4n3)cc12` [Example 34]: the figures for the IC50 in assay [1] (setting [3]) and in assay [2] (setting [4]) were 2.43 nM and 4.66 nM, respectively.

Regarding `CNC(=O)c1c(-n2ccc(C)cc2=O)oc2cc(N(C)S(C)(=O)=O)c(-c3ccc4nc(CN5CC(C)(C#N)C5)n5c6cccc(F)c6cc5c4n3)cc12` [Example 36], the IC50 in assay [1] (setting [3]) was found to be 2.49 nM; in assay [2] (setting [4]), 3.21 nM.

On to `CNC(=O)c1c(-c2ccc(F)cc2F)oc2cc(N(C)S(C)(=O)=O)c(-c3ccc4nc(CN5CC(F)C5)n5c6cccc(F)c6cc5c4n3)cc12` [Example 37], for which the IC50 in assay [1] (setting [3]) was determined as 5.26 nM; in assay [2] (setting [4]), 7.26 nM.

On to `CNC(=O)c1c(-c2ccc(F)cc2)oc2nc(N(C)S(C)(=O)=O)c(-c3ccc4nc(CN5CC(F)C5)n5c6cccc(F)c6cc5c4n3)cc12` [Example 38, 5-(11-fluoro-6-((3-fluoroazetidin-1-yl)methyl)pyrido[3′,2′:4,5]pyrimido[1,6-a]indol-2-yl)-2-(4-fluorophenyl)-N-methyl-6-(N-methylmethylsulfonamido)furo[2,3-b]pyridine-3-carboxamide], for which the results for the IC50 in assay [1] (setting [3]) and in assay [2] (setting [4]) were 6.38 nM and 14.7 nM, respectively.

For `CNC(=O)c1c(-c2ccc(F)cc2)oc2cc(N(C)S(C)(=O)=O)c(-c3ccc4ncn5c6ccccc6cc5c4c3)cc12` [Example 41, 2-(4-fluorophenyl)-5-(indolo[1,2-c]quinazolin-2-yl)-N-methyl-6-(N-methylmethylsulfonamido)benzofuran-3-carboxamide], the IC50 in assay [1] (setting [3]) is 2.09 nM; in assay [2] (setting [4]) it was 2.57 nM.

For `CNC(=O)c1c(-c2ccc(F)cc2)oc2cc(N(C)S(C)(=O)=O)c(-c3ccc4c(c3)-c3cc5ccccc5n3CN4S(C)(=O)=O)cc12` [Example 42, 2-(4-fluorophenyl)-N-methyl-6-(N-methylmethylsulfonamido)-5-(5-(methylsulfonyl)-5,6-dihydroindolo[1,2-c]quinazolin-2-yl)benzofuran-3-carboxamide], the IC50 worked out at 17.2 nM in assay [1] (setting [3]) and 13.1 nM in assay [2] (setting [4]).

Regarding `CNC(=O)c1c(-c2ccc(F)cc2F)oc2cc(N(C)S(C)(=O)=O)c(-c3ccc4nc(CN5CC[C@@H](F)C5)n5c6cccc(F)c6cc5c4n3)cc12` [Example 44, (R)-2-(2,4-difluorophenyl)-5-(11-fluoro-6-((3-fluoropyrrolidin-1-yl)methyl)pyrido[3′,2′:4,5]pyrimido[1,6-a]indol-2-yl)-N-methyl-6-(N-methylmethylsulfonamido)benzofuran-3-carboxamide], the values for the IC50 in assay [1] (setting [3]) and in assay [2] (setting [4]) were 3.22 nM and 3.45 nM, respectively.

For `CNC(=O)c1c(-c2ccc(F)cc2F)oc2cc(N(C)S(C)(=O)=O)c(-c3ccc4nc(CN5CC[C@H](F)C5)n5c6cccc(F)c6cc5c4n3)cc12` [Example 45], the IC50 is 4.43 nM in assay [1] (setting [3]) and 4.29 nM in assay [2] (setting [4]).
